ChEMBL document CHEMBL4373739, “6-Cinnamoyl-4-arylaminothienopyrimidines as highly potent cytotoxic agents: Design, synthesis and structure-activity relationship studies” (Eur J Med Chem, 2020)
Active and inactive are the calls of the source. No cut-off for these calls is given here.

Key:
HeLa [1] = assay: Antiproliferative activity against human HeLa cells incubated for 48 hrs by MTT assay; assay type: functional, cell-based
PC-3 = assay: Antiproliferative activity against human PC3 cells incubated for 48 hrs by MTT assay; assay type: functional, cell-based; conditions: PC-3, 48 h
MCF7 = assay: Antiproliferative activity against human MCF7 cells incubated for 48 hrs by MTT assay; assay type: functional, cell-based; conditions: MCF7, 48 h
A549 = assay: Antiproliferative activity against human A549 cells incubated for 48 hrs by MTT assay; assay type: functional, cell-based; conditions: A549, 48 h
MDA-MB-231 = assay: Antiproliferative activity against human MDA-MB-231 cells incubated for 48 hrs by MTT assay; assay type: functional, cell-based; conditions: MDA-MB-231, 48 h
HepG2 = assay: Antiproliferative activity against human HepG2 cells incubated for 48 hrs by MTT assay; assay type: functional, cell-based; conditions: HepG2, 48 h
[2] = molecular target: Epidermal growth factor receptor (Homo sapiens) (UniProt P00533); assay: Inhibition of EGFR in human HeLa cells assessed as effect on AKT phosphorylation at IC50 concentration measured upto 48 hrs by Western blot analysis; assay type: cell-based
SK-BR-3 = assay: Antiproliferative activity against human SKBR3 cells incubated for 48 hrs by MTT assay; assay type: functional, cell-based; conditions: SK-BR-3, 48 h
HeLa [3] = assay: Induction of apoptosis in human HeLa cells assessed as early apoptotic cells at IC50 concentration after 48 hrs by AnnexinV-APC/propidium iodide staining based FACScalibur flow cytometry analysis (reference value: 3.23 %); assay type: functional
HCT-116 = assay: Antiproliferative activity against human HCT116 cells incubated for 48 hrs by MTT assay; assay type: functional, cell-based; conditions: HCT-116, 48 h
SK-OV-3 = assay: Antiproliferative activity against human SKOV3 cells incubated for 48 hrs by MTT assay; assay type: functional, cell-based; conditions: SK-OV-3, 48 h
U-87 MG = assay: Antiproliferative activity against human U87 cells incubated for 48 hrs by MTT assay; assay type: functional, cell-based, U-87MG ATCC
[4] = molecular target: Epidermal growth factor receptor (Homo sapiens) (UniProt P00533); assay: Inhibition of EGFR in human HeLa cells assessed as reduction in ERK 1/2 phosphorylation at IC50 concentration measured upto 48 hrs by Western blot analysis; assay type: cell-based
SW480 = assay: Antiproliferative activity against human SW480 cells incubated for 48 hrs by MTT assay; assay type: functional, cell-based; conditions: SW480, 48 h
MRC5 = assay: Cytotoxicity against human MRC5 cells incubated for 48 hrs by MTT assay; assay type: cell-based; conditions: MRC5, 48 h
HeLa [5] = assay: Induction of apoptosis in human HeLa cells assessed as late apoptotic cells at IC50 concentration after 48 hrs by AnnexinV-APC/propidium iodide staining based FACScalibur flow cytometry analysis (reference value: 4.30 %); assay type: functional
[6] = molecular target: Epidermal growth factor receptor (Homo sapiens) (UniProt P00533); assay: Inhibition of EGFR phosphorylation in human HeLa cells at IC50 concentration measured upto 48 hrs by Western blot analysis; assay type: cell-based
HeLa [7] = assay: Induction of cell cycle arrest in human HeLa cells assessed as increase in cell population at sub-G1 phase at IC50 concentration after 48 hrs by RNase/propidium iodide staining based flow cytometry analysis; assay type: functional
HeLa [8] = assay: Induction of apoptosis in human HeLa cells assessed as live cells at IC50 concentration after 48 hrs by AnnexinV-APC/propidium iodide staining based FACScalibur flow cytometry analysis (reference value: 92 %); assay type: functional
[9] = Selectivity index, ratio of IC50 for human MRC5 to IC50 for human A549; assay type: toxicity; conditions: MRC5 cells and A549 cells, read-out: Ratio IC50
HeLa [10] = assay: Induction of apoptosis in human HeLa cells assessed as necrotic cells at IC50 concentration after 48 hrs by AnnexinV-APC/propidium iodide staining based FACScalibur flow cytometry analysis (reference value: 0.457 %); assay type: functional
HeLa [11] = assay: Induction of apoptosis in human HeLa cells assessed as necrotic cells after 48 hrs by AnnexinV-APC/propidium iodide staining based FACScalibur flow cytometry analysis (reference value: 0.457 %); assay type: functional
HeLa [12] = assay: Induction of apoptosis in human HeLa cells assessed as late apoptotic cells after 48 hrs by AnnexinV-APC/propidium iodide staining based FACScalibur flow cytometry analysis (reference value: 4.30 %); assay type: functional
HeLa [13] = assay: Induction of apoptosis in human HeLa cells assessed as live cells after 48 hrs by AnnexinV-APC/propidium iodide staining based FACScalibur flow cytometry analysis (reference value: 92 %); assay type: functional
HeLa [14] = assay: Induction of apoptosis in human HeLa cells assessed as early apoptotic cells after 48 hrs by AnnexinV-APC/propidium iodide staining based FACScalibur flow cytometry analysis (reference value: 3.23 %); assay type: functional

Chain of Epidermal growth factor receptor (Homo sapiens) (P00533 whole entry): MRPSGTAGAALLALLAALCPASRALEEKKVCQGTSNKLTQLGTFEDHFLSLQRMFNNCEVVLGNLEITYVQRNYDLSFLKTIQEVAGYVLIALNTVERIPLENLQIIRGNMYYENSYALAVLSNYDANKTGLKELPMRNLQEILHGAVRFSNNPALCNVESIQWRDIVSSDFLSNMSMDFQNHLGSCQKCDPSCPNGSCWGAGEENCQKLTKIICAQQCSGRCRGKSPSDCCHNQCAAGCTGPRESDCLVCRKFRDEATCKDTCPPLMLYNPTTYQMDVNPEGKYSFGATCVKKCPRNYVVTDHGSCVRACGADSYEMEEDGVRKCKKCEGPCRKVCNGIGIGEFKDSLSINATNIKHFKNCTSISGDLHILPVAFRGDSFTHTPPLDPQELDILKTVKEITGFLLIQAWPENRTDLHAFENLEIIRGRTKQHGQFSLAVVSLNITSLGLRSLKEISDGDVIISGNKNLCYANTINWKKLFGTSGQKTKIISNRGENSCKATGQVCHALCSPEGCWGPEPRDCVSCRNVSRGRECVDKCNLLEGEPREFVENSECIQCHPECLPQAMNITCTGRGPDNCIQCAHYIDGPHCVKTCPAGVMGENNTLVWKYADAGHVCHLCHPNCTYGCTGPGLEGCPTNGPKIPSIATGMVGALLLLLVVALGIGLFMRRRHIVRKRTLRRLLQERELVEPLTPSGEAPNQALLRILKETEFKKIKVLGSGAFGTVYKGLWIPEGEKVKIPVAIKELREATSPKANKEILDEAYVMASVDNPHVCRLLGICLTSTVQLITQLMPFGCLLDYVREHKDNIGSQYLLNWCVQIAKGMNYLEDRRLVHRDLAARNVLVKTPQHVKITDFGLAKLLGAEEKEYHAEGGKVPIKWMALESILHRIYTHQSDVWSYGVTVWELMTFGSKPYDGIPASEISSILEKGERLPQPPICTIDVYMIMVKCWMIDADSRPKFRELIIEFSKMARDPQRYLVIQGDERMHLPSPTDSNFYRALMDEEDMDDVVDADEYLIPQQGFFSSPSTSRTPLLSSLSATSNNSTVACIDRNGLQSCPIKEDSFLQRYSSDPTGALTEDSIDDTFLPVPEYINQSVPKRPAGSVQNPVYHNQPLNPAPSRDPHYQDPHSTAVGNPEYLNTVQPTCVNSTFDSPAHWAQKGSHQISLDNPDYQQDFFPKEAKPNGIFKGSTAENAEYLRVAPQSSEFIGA

Row | Compound | IC50 (HeLa [1]) | IC50 (PC-3) | IC50 (MCF7) | IC50 (A549) | IC50 (MDA-MB-231) | IC50 (HepG2) | other results
1 | C#Cc1cccc(Nc2ncnc3cc(NC(=O)/C=C/c4ccccc4)sc23)c1 | 20.5 µM | 0.7 µM | 75.6 µM | 26.2 µM | 2.34 µM | 15.4 µM | 
2 | O=C(/C=C/c1ccccc1)Nc1cc2c(Nc3cc(Cl)cc(Cl)c3)ncnc2s1 | 0.004 µM | 0.39 µM | 5.8 µM | 0.04 µM | 11.5 µM | 21.8 µM | inhibition [2]: inactive; IC50 (SK-BR-3): 6.46 µM; Activity (HeLa [3]): 42.8%; IC50 (HCT-116): 3.83 µM; IC50 (SK-OV-3): 10.9 µM; IC50 (U-87 MG): 4.49 µM; inhibition [4]: Active; IC50 (SW480): 4.93 µM; IC50 (MRC5): 28.8 µM; Activity (HeLa [5]): 11%; inhibition [6]: Active; Activity (HeLa [7]): Active; Activity (HeLa [8]): 45.8%; selectivity ratio [9]: 720; Activity (HeLa [10]): 0.448%
3 | O=C(/C=C/c1ccccc1)Nc1cc2c(Nc3cccc(Cl)c3F)ncnc2s1 | 34.9 µM | 0.4 µM | 93.9 µM | 26.2 µM | 3.93 µM | 44.6 µM | 
4 | O=C(/C=C/c1ccccc1)Nc1cc2ncnc(Nc3ccc(Cl)c(Cl)c3)c2s1 | 10.7 µM | 0.26 µM | > 100 µM | 19.4 µM | 2.41 µM | 13.4 µM | 
5 | O=C(/C=C/c1ccccc1)Nc1cc2ncnc(Nc3ccc(F)c(Cl)c3)c2s1 | 2.81 µM | 0.2 µM | 30.9 µM | 6.67 µM | 2.1 µM | 10.6 µM | 
6 | C#Cc1cccc(Nc2ncnc3cc(OCCOC)c(OCCOC)cc23)c1 [ERLOTINIB] | 7.48 µM | 7 µM | 11.7 µM | 3.8 µM | 8.3 µM | 28.8 µM | IC50 (SK-BR-3): 49.3 µM; IC50 (HCT-116): 23.3 µM; IC50 (SK-OV-3): 61.8 µM; Activity (HeLa [11]): 6.06%; IC50 (U-87 MG): 31.9 µM; Activity (HeLa [12]): 15%; IC50 (SW480): 23 µM; Activity (HeLa [13]): 52.7%; Activity (HeLa [14]): 26.2%
7 | N#Cc1cccc(Nc2ncnc3cc(NC(=O)/C=C/c4ccccc4)sc23)c1 | 7.22 µM | 0.54 µM | > 100 µM | 17.2 µM | 1.04 µM | 15.9 µM | 
8 | O=C(/C=C/c1ccccc1)Nc1cc2ncnc(Nc3cc(Cl)cc(Cl)c3)c2s1 | 3.21 µM | 0.22 µM | > 100 µM | 12.5 µM | 1 µM | 10.7 µM | 
9 | COc1ccc(/C=C/C(=O)Nc2cc3c(Nc4cc(Cl)cc(Cl)c4)ncnc3s2)cc1 | 43.3 µM | 0.45 µM | 75.6 µM | 21.9 µM | 1.97 µM | 41.8 µM | 
10 | COc1ccc(/C=C/C(=O)Nc2cc3c(Nc4ccc(Cl)c(Cl)c4)ncnc3s2)cc1 | 0.033 µM | 0.79 µM | 20.1 µM | 3.32 µM | 16.6 µM | 30.6 µM | IC50 (SK-BR-3): 11.9 µM; Activity (HeLa [3]): 15.7%; IC50 (HCT-116): 7.41 µM; IC50 (SK-OV-3): 10.7 µM; IC50 (U-87 MG): 4.4 µM; IC50 (SW480): 5.75 µM; IC50 (MRC5): 18.7 µM; Activity (HeLa [5]): 15.5%; Activity (HeLa [7]): Active; Activity (HeLa [8]): 66.8%; selectivity ratio [9]: 5.6; Activity (HeLa [10]): 2%
11 | O=C(/C=C/c1ccc(O)cc1)Nc1cc2c(Nc3ccc(Cl)c(Cl)c3)ncnc2s1 | 24.8 µM | 0.3 µM | 60.6 µM | 34.3 µM | 1.98 µM | 42.9 µM | 
12 | O=C(/C=C/c1ccccc1)Nc1cc2c(Nc3ccc(F)c(Cl)c3)ncnc2s1 | 2.14 µM | 0.7 µM | 14.3 µM | 11.2 µM | 7.6 µM | 22.8 µM | 
13 | O=C(/C=C/c1ccccc1)Nc1cc2c(Nc3ccc(Cl)c(Cl)c3)ncnc2s1 | 0.43 µM | 0.48 µM | 15.3 µM | 7.6 µM | 4.4 µM | 30.1 µM | 
14 | COc1ccc(/C=C/C(=O)Nc2cc3ncnc(Nc4ccc(F)c(Cl)c4)c3s2)cc1 | 20.6 µM | 0.1 µM | 29.1 µM | 22.7 µM | 2.6 µM | 13.9 µM | 
15 | C#Cc1cccc(Nc2ncnc3sc(NC(=O)/C=C/c4ccccc4)cc23)c1 | 4.64 µM | 0.4 µM | 38.4 µM | 10.1 µM | 5.05 µM | 58.1 µM | 
